Assay results taken from paper PMC4066754 (2014).

Assays:
[1] = tested on: hairpin 3a (DNA, hairpin, hexaethylene glycol (HEG) loop linker between 6 and 7) CTATGCGCA; assay: 1H NMR titration; conditions: 400 mM NaCl, 80 mM MgCl2; 200 mM phosphate in D2O, pH 8.9, 20°C, 0.5 mM hairpin
[2] = tested on: hairpin 2a (DNA, hairpin, hexaethylene glycol (HEG) loop linker between 4 and 5) ATGCGCA; assay: 1H NMR titration; conditions: 400 mM NaCl, 80 mM MgCl2; 200 mM phosphate in D2O, pH 8.9, 20°C, 0.5 mM hairpin
[3] = tested on: template 8tat:primer + downstream-binding oligonucleotide (DNA, duplex, 3'-amino-2',3'-dideoxynucleoside at primer 3' end) CTGGATTTCCTCAGTATCGTGCG/CGCACGA/ACTGAGGAAATCCA; assay: inhibition of enzyme-free primer extension (MALDI-ToF kinetics); conditions: 400 mM NaCl, 80 mM MgCl2; 200 mM HEPES, pH 8.9, 20°C; competes with 7.2 mM TMP-OAt; calculated from Kinh
[4] = tested on: template 8gag:primer + downstream-binding oligonucleotide (DNA, duplex, 3'-amino-2',3'-dideoxynucleoside at primer 3' end) CTGGATTTCCTCAGGAGCGTGCG/CGCACGC/CCTGAGGAAATCCA; assay: as above; conditions: 400 mM NaCl, 80 mM MgCl2; 200 mM HEPES, pH 8.9, 20°C; competes with 7.2 mM TMP-OAt; calculated from Kinh
[5] = tested on: template 8aaa:primer + downstream-binding oligonucleotide (DNA, duplex, 3'-amino-2',3'-dideoxynucleoside at primer 3' end) CTGGATTTCCTCAGAAACGTGCG/CGCACGT/TCTGAGGAAATCCA; assay: as above; conditions: 400 mM NaCl, 80 mM MgCl2; 200 mM HEPES, pH 8.9, 20°C; competes with 7.2 mM TMP-OAt; calculated from Kinh
[6] = tested on: template 8cac:primer + downstream-binding oligonucleotide (DNA, duplex, 3'-amino-2',3'-dideoxynucleoside at primer 3' end) CTGGATTTCCTCAGCACCGTGCG/CGCACGG/GCTGAGGAAATCCA; assay: as above; conditions: 400 mM NaCl, 80 mM MgCl2; 200 mM HEPES, pH 8.9, 20°C; competes with 7.2 mM TMP-OAt; calculated from Kinh
[7] = tested on: template 8tat:primer, no downstream-binding oligonucleotide (DNA, duplex, 3'-amino-2',3'-dideoxynucleoside at primer 3' end) CTGGATTTCCTCAGTATCGTGCG/CGCACGA; assay: as above; conditions: 400 mM NaCl, 80 mM MgCl2; 200 mM HEPES, pH 8.9, 20°C; competes with 7.2 mM TMP-OAt; calculated from Kinh
[8] = tested on: template 8cac:primer, no downstream-binding oligonucleotide (DNA, duplex, 3'-amino-2',3'-dideoxynucleoside at primer 3' end) CTGGATTTCCTCAGCACCGTGCG/CGCACGG; assay: as above; conditions: 400 mM NaCl, 80 mM MgCl2; 200 mM HEPES, pH 8.9, 10°C; competes with 7.2 mM TMP-OAt; calculated from Kinh
[9] = tested on: hairpin 4a (DNA, hairpin, hexaethylene glycol (HEG) loop linker between 4 and 5) ACAGCTG; assay: 1H NMR titration; conditions: 400 mM NaCl, 80 mM MgCl2; 200 mM phosphate in D2O, pH 8.9, 20°C, 0.5 mM hairpin
[10] = tested on: template 8ggg:primer + downstream-binding oligonucleotide (DNA, duplex, 3'-amino-2',3'-dideoxynucleoside at primer 3' end) CTGGATTTCCTCAGGGGCGTGCG/CGCACGC/CCTGAGGAAATCCA; assay: inhibition of enzyme-free primer extension (MALDI-ToF kinetics); conditions: 400 mM NaCl, 80 mM MgCl2; 200 mM HEPES, pH 8.9, 20°C; competes with 3.6 mM dCMP-OAt; calculated from Kinh
[11] = tested on: template 8cgc:primer + downstream-binding oligonucleotide (DNA, duplex, 3'-amino-2',3'-dideoxynucleoside at primer 3' end) CTGGATTTCCTCAGCGCCGTGCG/CGCACGG/GCTGAGGAAATCCA; assay: as above; conditions: 400 mM NaCl, 80 mM MgCl2; 200 mM HEPES, pH 8.9, 20°C; competes with 3.6 mM dCMP-OAt; calculated from Kinh
[12] = tested on: hairpin 2g (DNA, hairpin, hexaethylene glycol (HEG) loop linker between 4 and 5) GTGCGCA; assay: 1H NMR titration; conditions: 400 mM NaCl, 80 mM MgCl2; 200 mM phosphate in D2O, pH 8.9, 20°C, 0.5 mM hairpin
[13] = tested on: template 8cgc:primer, no downstream-binding oligonucleotide (DNA, duplex, 3'-amino-2',3'-dideoxynucleoside at primer 3' end) CTGGATTTCCTCAGCGCCGTGCG/CGCACGG; assay: inhibition of enzyme-free primer extension (MALDI-ToF kinetics); conditions: 400 mM NaCl, 80 mM MgCl2; 200 mM HEPES, pH 8.9, 10°C; competes with 3.6 mM dCMP-OAt; calculated from Kinh
[14] = tested on: template 8aga:primer + downstream-binding oligonucleotide (DNA, duplex, 3'-amino-2',3'-dideoxynucleoside at primer 3' end) CTGGATTTCCTCAGAGACGTGCG/CGCACGT/TCTGAGGAAATCCA; assay: as above; conditions: 400 mM NaCl, 80 mM MgCl2; 200 mM HEPES, pH 8.9, 20°C; competes with 3.6 mM dCMP-OAt; calculated from Kinh
[15] = tested on: hairpin 4t (DNA, hairpin, hexaethylene glycol (HEG) loop linker between 4 and 5) TCAGCTG; assay: 1H NMR titration; conditions: 400 mM NaCl, 80 mM MgCl2, 200 mM phosphate in D2O, pH 8.9, 20°C, 0.5 mM hairpin
[16] = tested on: template 8tgt:primer, no downstream-binding oligonucleotide (DNA, duplex, 3'-amino-2',3'-dideoxynucleoside at primer 3' end) CTGGATTTCCTCAGTGTCGTGCG/CGCACGA; assay: inhibition of enzyme-free primer extension (MALDI-ToF kinetics); conditions: 400 mM NaCl, 80 mM MgCl2; 200 mM HEPES, pH 8.9, 20°C; competes with 3.6 mM dCMP-OAt; calculated from Kinh
[17] = tested on: template 8tgt:primer + downstream-binding oligonucleotide (DNA, duplex, 3'-amino-2',3'-dideoxynucleoside at primer 3' end) CTGGATTTCCTCAGTGTCGTGCG/CGCACGA/ACTGAGGAAATCCA; assay: as above; conditions: 400 mM NaCl, 80 mM MgCl2; 200 mM HEPES, pH 8.9, 20°C; competes with 3.6 mM dCMP-OAt; calculated from Kinh
[18] = tested on: template 8aca:primer + downstream-binding oligonucleotide (DNA, duplex, 3'-amino-2',3'-dideoxynucleoside at primer 3' end) CTGGATTTCCTCAGACACGTGCG/CGCACGT/TCTGAGGAAATCCA; assay: as above; conditions: 400 mM NaCl, 80 mM MgCl2; 200 mM HEPES, pH 8.9, 20°C; competes with 3.6 mM dGMP-OAt; calculated from Kinh
[19] = tested on: template 8ccc:primer + downstream-binding oligonucleotide (DNA, duplex, 3'-amino-2',3'-dideoxynucleoside at primer 3' end) CTGGATTTCCTCAGCCCCGTGCG/CGCACGG/GCTGAGGAAATCCA; assay: as above; conditions: 400 mM NaCl, 80 mM MgCl2; 200 mM HEPES, pH 8.9, 20°C; competes with 3.6 mM dGMP-OAt; calculated from Kinh
[20] = tested on: template 8ccc:primer, no downstream-binding oligonucleotide (DNA, duplex, 3'-amino-2',3'-dideoxynucleoside at primer 3' end) CTGGATTTCCTCAGCCCCGTGCG/CGCACGG; assay: as above; conditions: 400 mM NaCl, 80 mM MgCl2; 200 mM HEPES, pH 8.9, 10°C; competes with 3.6 mM dGMP-OAt; calculated from Kinh
[21] = tested on: template 8tct:primer + downstream-binding oligonucleotide (DNA, duplex, 3'-amino-2',3'-dideoxynucleoside at primer 3' end) CTGGATTTCCTCAGTCTCGTGCG/CGCACGA/ACTGAGGAAATCCA; assay: as above; conditions: 400 mM NaCl, 80 mM MgCl2; 200 mM HEPES, pH 8.9, 20°C; competes with 3.6 mM dGMP-OAt; calculated from Kinh
[22] = tested on: hairpin 3c (DNA, hairpin, hexaethylene glycol (HEG) loop linker between 6 and 7) CTCTGCGCA; assay: 1H NMR titration; conditions: 400 mM NaCl, 80 mM MgCl2; 200 mM phosphate in D2O, pH 8.9, 20°C, 0.5 mM hairpin
[23] = tested on: template 8gcg:primer + downstream-binding oligonucleotide (DNA, duplex, 3'-amino-2',3'-dideoxynucleoside at primer 3' end) CTGGATTTCCTCAGGCGCGTGCG/CGCACGC/CCTGAGGAAATCCA; assay: inhibition of enzyme-free primer extension (MALDI-ToF kinetics); conditions: 400 mM NaCl, 80 mM MgCl2; 200 mM HEPES, pH 8.9, 20°C; competes with 3.6 mM dGMP-OAt; calculated from Kinh
[24] = tested on: template 8tct:primer, no downstream-binding oligonucleotide (DNA, duplex, 3'-amino-2',3'-dideoxynucleoside at primer 3' end) CTGGATTTCCTCAGTCTCGTGCG/CGCACGA; assay: as above; conditions: 400 mM NaCl, 80 mM MgCl2; 200 mM HEPES, pH 8.9, 20°C; competes with 3.6 mM dGMP-OAt; calculated from Kinh
[25] = tested on: hairpin 2c (DNA, hairpin, hexaethylene glycol (HEG) loop linker between 4 and 5) CTGCGCA; assay: 1H NMR titration; conditions: 400 mM NaCl, 80 mM MgCl2; 200 mM phosphate in D2O, pH 8.9, 20°C, 0.5 mM hairpin
[26] = tested on: template 8gtg:primer + downstream-binding oligonucleotide (DNA, duplex, 3'-amino-2',3'-dideoxynucleoside at primer 3' end) CTGGATTTCCTCAGGTGCGTGCG/CGCACGC/CCTGAGGAAATCCA; assay: inhibition of enzyme-free primer extension (MALDI-ToF kinetics); conditions: 400 mM NaCl, 80 mM MgCl2; 200 mM HEPES, pH 8.9, 20°C; competes with 3.6 mM dAMP-OAt; calculated from Kinh
[27] = tested on: template 8ttt:primer + downstream-binding oligonucleotide (DNA, duplex, 3'-amino-2',3'-dideoxynucleoside at primer 3' end) CTGGATTTCCTCAGTTTCGTGCG/CGCACGA/ACTGAGGAAATCCA; assay: as above; conditions: 400 mM NaCl, 80 mM MgCl2; 200 mM HEPES, pH 8.9, 20°C; competes with 3.6 mM dAMP-OAt; calculated from Kinh
[28] = tested on: template 8ata:primer + downstream-binding oligonucleotide (DNA, duplex, 3'-amino-2',3'-dideoxynucleoside at primer 3' end) CTGGATTTCCTCAGATACGTGCG/CGCACGT/TCTGAGGAAATCCA; assay: as above; conditions: 400 mM NaCl, 80 mM MgCl2; 200 mM HEPES, pH 8.9, 20°C; competes with 3.6 mM dAMP-OAt; calculated from Kinh
[29] = tested on: template 8ttt:primer, no downstream-binding oligonucleotide (DNA, duplex, 3'-amino-2',3'-dideoxynucleoside at primer 3' end) CTGGATTTCCTCAGTTTCGTGCG/CGCACGA; assay: as above; conditions: 400 mM NaCl, 80 mM MgCl2; 200 mM HEPES, pH 8.9, 20°C; competes with 3.6 mM dAMP-OAt; calculated from Kinh
[30] = tested on: template 8ctc:primer + downstream-binding oligonucleotide (DNA, duplex, 3'-amino-2',3'-dideoxynucleoside at primer 3' end) CTGGATTTCCTCAGCTCCGTGCG/CGCACGG/GCTGAGGAAATCCA; assay: as above; conditions: 400 mM NaCl, 80 mM MgCl2; 200 mM HEPES, pH 8.9, 20°C; competes with 3.6 mM dAMP-OAt; calculated from Kinh
[31] = tested on: template 8ctc:primer, no downstream-binding oligonucleotide (DNA, duplex, 3'-amino-2',3'-dideoxynucleoside at primer 3' end) CTGGATTTCCTCAGCTCCGTGCG/CGCACGG; assay: as above; conditions: 400 mM NaCl, 80 mM MgCl2; 200 mM HEPES, pH 8.9, 10°C; competes with 3.6 mM dAMP-OAt; calculated from Kinh
[32] = tested on: RNA hairpin 6c (RNA, hairpin, hexaethylene glycol (HEG) loop linker between 4 and 5) CCAGCUG; assay: 1H NMR titration; conditions: 400 mM NaCl, 80 mM MgCl2; 200 mM phosphate in D2O, pH 7, 20°C, 2 mM hairpin

## Cc1cn([C@H]2C[C@H](O)[C@@H](COP(=O)(O)O)O2)c(=O)[nH]c1=O
[1]
  Kd: 284 ± 44 mM
[2]
  Kd: 261 ± 47 mM
[3]
  Kd: 59 mM
[4]
  Kd: 83 mM
[5]
  Kd: 77 mM
[6]
  Kd: 113 mM
[7]
  Kd: 200 mM
[8]
  Kd: 144 mM
[9]
  Kd: 241 ± 12 mM

## Nc1ccn([C@H]2C[C@H](O)[C@@H](COP(=O)(O)O)O2)c(=O)n1
[10]
  Kd: 18 mM
[11]
  Kd: 6 mM
[12]
  Kd: 40 mM
[13]
  Kd: 30 mM
[14]
  Kd: 15 mM
[15]; no saturation up to 1 M dCMP
  Kd: > ≥2000 mM
[16]
  Kd: 19 mM
[17]
  Kd: 5 mM

## Nc1nc2c(ncn2[C@H]2C[C@H](O)[C@@H](COP(=O)(O)O)O2)c(=O)[nH]1
[18]
  Kd: 5 mM
[19]
  Kd: 7 mM
[20]
  Kd: 5 mM
[21]
  Kd: 2 mM
[22]
  Kd: 16 mM
[23]
  Kd: 10 mM
[15]
  Kd: 100 mM
[24]
  Kd: 15 mM
[25]
  Kd: 9.9 ± 0.9 mM

## Nc1ncnc2c1ncn2[C@H]1C[C@H](O)[C@@H](COP(=O)(O)O)O1
[26]
  Kd: 5 mM
[27]
  Kd: 5 mM
[28]
  Kd: 5 mM
[29]
  Kd: 17 mM
[15]
  Kd: 38 mM
[30]
  Kd: 7 mM
[31]
  Kd: 7 mM

## Nc1nc2c(ncn2[C@@H]2O[C@H](COP(=O)(O)O)[C@@H](O)[C@H]2O)c(=O)[nH]1
[32]
  Kd: 14 mM
